Laboratory results as given in patent publication US20160303089A1, “COMPOUND PERTAINING TO NEUROPOIESIS AND DRUG COMPOSITION” (KYOTO UNIVERSITY, priority 2013, published 2016).

Tests used:
DYRK1A [1] = molecular target: T1, DYRK1A (Homo sapiens, UniProt Q13627); experiment: Tau phosphorylation in cell lines with induced expression of DYRK1A and tau protein (western blotting); assay type: cell-based; parameters: dose or concentration left out as unconfirmed; conditions: compound for 4 hours after induced expression of DYRK1A and tau
Experimental: Moreover, the study was conducted to investigate whether the compound 3 inhibited the DYRK activity in the cells in vivo by using phosphorylation of tau protein (substrate) as a marker. First, cell lines that can induce the expression of DYRK1A and a tau protein by a drug were established. The cell lines were subjected to the drug treatment to induce the expression of DYRKIA and the tau protein. Then, the cells were treated with the compound 3 […] for 4 hours. After the cells were collected, the phosphorylation of the tau protein was detected by western blotting. The results confirmed that the treatment of the cells with the compound 3 inhibited the tau phosphorylation.

[2] = tested on: phosphorylation of tau protein; experiment: Tau phosphorylation in brain, acute cold water stress model (western blotting); assay type: in vivo; conditions: administered 30 minutes before cold water stress (10 minutes); brains collected 5 minutes later
Experimental: Further, the study was conducted to investigate whether the compounds 1 to 2 inhibited the DYRK activity in the animal individuals in vivo by using phosphorylation of tau protein due to acute cold water stress as a marker. The animals were exposed to cold water stress for 10 minutes, and their brains were collected 5 minutes later. Then, the phosphorylation of the tau protein in the brains was confirmed by western blotting. Consequently, the phosphorylation of the tau protein was enhanced by the acute cold water stress. When the compound 1 or the compound 2 was administered to the animal individuals 30 minutes before they underwent the cold water stress, the tau phosphorylation caused by the cold water stress was inhibited.

DYRKIA = molecular target: T2, DYRKIA (Homo sapiens, UniProt Q13627); experiment: Cyclin D1 expression in HEK293 Flp-In cell line with inducible DYRK expression (western blotting); assay type: cell-based
T2 construct: expressed in transfected cells; host or cells: HEK293 Flp-In
Experimental: (§1) Using cell lines that can induce the expression of DYRKIA, DYRKIB, and DYRK2 by the addition of a drug, the expression level of cyclin D1 was examined when DYRK was overexpressed (see FIG. 8). Specifically, the experiments were performed in the following manner.
(§2) A HEK293 Flp-In cell system was used to prepare cell lines that can induce the expression of each of DYRKIA, DYRK1B, and DYRK2 of the DYRK family by the addition of a drug. The cells were treated with the drug for 16 hours to induce the expression of DYRK, and then cultured in the presence of the compound 2 (5 μM) for 4 hours. After the cells were collected, the expression level of cyclin D1 was analyzed by western blotting (see FIG. 8).

DYRK2 [3] = molecular target: T3, DYRK2 (Homo sapiens, UniProt Q92630); experiment: as above; assay type: cell-based
T3 construct: expressed in transfected cells; host or cells: HEK293 Flp-In
T3 sequence (Q92630 1-601): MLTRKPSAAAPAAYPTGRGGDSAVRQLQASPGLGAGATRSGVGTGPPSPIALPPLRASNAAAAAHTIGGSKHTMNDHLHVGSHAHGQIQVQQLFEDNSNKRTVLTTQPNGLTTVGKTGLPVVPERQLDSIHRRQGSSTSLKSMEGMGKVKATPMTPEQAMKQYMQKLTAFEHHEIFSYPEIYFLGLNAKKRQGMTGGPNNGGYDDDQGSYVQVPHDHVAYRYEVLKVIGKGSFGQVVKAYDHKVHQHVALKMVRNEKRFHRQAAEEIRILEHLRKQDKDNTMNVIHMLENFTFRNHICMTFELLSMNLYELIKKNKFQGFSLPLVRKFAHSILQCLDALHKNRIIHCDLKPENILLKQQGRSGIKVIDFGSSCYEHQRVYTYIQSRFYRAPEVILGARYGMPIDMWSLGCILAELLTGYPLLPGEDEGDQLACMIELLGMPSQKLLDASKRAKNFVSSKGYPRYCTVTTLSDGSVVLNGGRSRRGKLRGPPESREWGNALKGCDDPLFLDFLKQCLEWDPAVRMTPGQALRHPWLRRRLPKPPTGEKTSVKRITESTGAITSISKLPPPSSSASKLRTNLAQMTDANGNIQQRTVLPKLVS
Experimental: as §1, §2

DYRK1B = molecular target: T4, DYRK1B (Homo sapiens, UniProt Q9Y463); experiment: as above; assay type: cell-based
T4 construct: expressed in transfected cells; host or cells: HEK293 Flp-In
T4 sequence (Q9Y463 whole entry, species assumed): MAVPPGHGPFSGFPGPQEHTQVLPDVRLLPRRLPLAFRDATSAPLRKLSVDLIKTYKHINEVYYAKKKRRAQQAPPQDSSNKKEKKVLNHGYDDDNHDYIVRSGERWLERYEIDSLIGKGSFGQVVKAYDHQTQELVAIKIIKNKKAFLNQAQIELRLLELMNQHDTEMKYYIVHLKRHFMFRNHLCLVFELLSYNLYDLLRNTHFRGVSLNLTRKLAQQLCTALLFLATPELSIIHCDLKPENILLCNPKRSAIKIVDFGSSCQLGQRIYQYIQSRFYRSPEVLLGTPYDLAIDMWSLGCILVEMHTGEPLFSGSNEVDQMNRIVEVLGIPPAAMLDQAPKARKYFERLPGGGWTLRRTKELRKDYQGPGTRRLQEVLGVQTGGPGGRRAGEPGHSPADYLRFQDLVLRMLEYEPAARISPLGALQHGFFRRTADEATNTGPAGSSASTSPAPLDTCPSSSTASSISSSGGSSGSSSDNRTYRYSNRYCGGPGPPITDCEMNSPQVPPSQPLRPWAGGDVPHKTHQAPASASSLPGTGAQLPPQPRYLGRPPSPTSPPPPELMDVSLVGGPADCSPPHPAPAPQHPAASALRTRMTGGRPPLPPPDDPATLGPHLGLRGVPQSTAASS
Experimental: as §1, §2

[4] = tested on: neural stem cells in the dentate gyrus of the hippocampus; experiment: Neurogenesis in dentate gyrus of hippocampus of mice (BrdU positive cells); assay type: in vivo, C57BL/6J mice; conditions: oral, 30 mg/kg and 100 mg/kg for 10 or 30 days; depended on the dosage; compared to solvent control
Experimental: The effect of the compound 2 on neurogenesis in animal individuals (rodents) was studied. The subgranular zone of the dentate gyrus of the hippocampus is a region where neurogenesis occurs. In this region, 5-bromo-2′-deoxyuridine (BrdU) was used as a cell proliferation marker to specifically detect proliferating cells and quantitatively compare the number of proliferating cells. Specifically, the experiments were performed in the following manner. The compound 2 was prepared with a carboxymethyl cellulose solvent and orally administered repeatedly to 9-week-old male C57BL/6J mice (each weighing 25 g) in a dosage of 30 mg/kg and 100 mg/kg for 10 or 30 days. On the last day of the administration, 150 mg/kg of BrdU were intraperitoneally injected into the mice, and the samples were collected 24 hours later by perfusion fixation. Then, coronal sections of 50 μm were prepared by a microtome. After the denaturation of DNA by 1.5 N hydrochloric acid, an anti-BrdU antibody was used to detect BrdU that had been incorporated into the proliferating neural stem cells.

DYRK3 = molecular target: T5, DYRK3 (Homo sapiens, UniProt O43781); experiment: In vitro assay of the inhibition of protein phosphorylation activity; assay type: biochemical
T5 sequence (O43781 1-588): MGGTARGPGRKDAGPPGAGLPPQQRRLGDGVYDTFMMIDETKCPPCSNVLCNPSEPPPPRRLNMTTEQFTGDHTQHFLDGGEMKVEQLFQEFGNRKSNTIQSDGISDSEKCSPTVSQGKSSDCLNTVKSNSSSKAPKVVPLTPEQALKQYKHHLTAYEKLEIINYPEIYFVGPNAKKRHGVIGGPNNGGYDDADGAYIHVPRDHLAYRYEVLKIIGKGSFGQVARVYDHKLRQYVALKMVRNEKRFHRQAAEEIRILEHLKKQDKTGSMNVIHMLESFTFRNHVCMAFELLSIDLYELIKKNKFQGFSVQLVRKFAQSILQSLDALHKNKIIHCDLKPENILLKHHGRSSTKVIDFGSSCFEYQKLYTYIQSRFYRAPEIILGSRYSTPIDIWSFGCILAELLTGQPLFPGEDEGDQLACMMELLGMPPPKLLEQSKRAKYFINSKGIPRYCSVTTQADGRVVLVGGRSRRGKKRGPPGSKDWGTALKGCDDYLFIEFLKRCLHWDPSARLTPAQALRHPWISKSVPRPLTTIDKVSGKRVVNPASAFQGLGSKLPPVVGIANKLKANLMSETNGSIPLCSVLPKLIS

DYRK2 [5] = molecular target: T3, DYRK2; experiment: as above; assay type: biochemical
CLK2 = CLK2 (Homo sapiens, UniProt P49760); experiment: as above; assay type: biochemical
CLK2, sequence (P49760 whole entry, species assumed): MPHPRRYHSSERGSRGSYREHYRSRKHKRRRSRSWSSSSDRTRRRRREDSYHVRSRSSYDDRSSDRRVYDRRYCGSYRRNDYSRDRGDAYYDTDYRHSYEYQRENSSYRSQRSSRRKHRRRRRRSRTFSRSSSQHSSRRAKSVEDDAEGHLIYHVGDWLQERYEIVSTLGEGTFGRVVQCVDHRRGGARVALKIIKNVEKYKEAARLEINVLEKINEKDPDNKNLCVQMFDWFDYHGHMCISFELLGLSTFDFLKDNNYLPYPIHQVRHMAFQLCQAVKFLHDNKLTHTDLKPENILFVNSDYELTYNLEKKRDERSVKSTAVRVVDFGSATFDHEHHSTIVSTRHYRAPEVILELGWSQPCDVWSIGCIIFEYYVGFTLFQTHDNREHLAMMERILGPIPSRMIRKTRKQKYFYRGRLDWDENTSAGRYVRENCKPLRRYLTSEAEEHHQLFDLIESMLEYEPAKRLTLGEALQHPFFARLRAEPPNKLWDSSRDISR

CLK1 = CLK1 (Homo sapiens, UniProt P49759); experiment: as above; assay type: biochemical
CLK1, sequence (P49759 whole entry): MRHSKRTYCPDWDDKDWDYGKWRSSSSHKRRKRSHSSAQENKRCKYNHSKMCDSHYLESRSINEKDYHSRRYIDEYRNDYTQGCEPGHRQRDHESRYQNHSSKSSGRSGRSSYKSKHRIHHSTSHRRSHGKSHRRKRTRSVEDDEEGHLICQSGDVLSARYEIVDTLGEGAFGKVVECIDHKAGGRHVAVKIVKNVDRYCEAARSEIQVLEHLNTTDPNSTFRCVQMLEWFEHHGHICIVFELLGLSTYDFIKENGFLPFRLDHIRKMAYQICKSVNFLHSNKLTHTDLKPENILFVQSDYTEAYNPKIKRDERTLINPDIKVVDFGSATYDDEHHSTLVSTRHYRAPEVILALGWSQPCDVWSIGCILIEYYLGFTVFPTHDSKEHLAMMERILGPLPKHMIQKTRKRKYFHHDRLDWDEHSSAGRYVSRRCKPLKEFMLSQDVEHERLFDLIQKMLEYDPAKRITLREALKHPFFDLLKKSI

DYRK1A [6] = molecular target: T1, DYRK1A; experiment: as above; assay type: biochemical
CLK3 = CLK3 (Homo sapiens, UniProt P49761); experiment: as above; assay type: biochemical
CLK3, sequence (P49761 whole entry, species assumed): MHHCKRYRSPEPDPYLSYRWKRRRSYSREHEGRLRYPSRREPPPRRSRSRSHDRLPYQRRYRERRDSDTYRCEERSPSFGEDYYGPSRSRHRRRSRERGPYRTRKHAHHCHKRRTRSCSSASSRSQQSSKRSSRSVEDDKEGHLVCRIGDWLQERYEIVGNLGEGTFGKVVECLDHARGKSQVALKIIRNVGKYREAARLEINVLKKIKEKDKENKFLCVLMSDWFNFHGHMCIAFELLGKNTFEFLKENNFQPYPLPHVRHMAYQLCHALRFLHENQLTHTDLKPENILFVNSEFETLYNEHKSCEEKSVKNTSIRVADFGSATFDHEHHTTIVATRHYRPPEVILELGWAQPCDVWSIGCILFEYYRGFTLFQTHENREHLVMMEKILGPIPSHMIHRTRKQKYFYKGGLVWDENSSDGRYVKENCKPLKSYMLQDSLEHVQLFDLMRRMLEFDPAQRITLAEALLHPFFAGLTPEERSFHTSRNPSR

DYRKIB = DYRKIB (Homo sapiens, UniProt Q9Y463); experiment: as above; assay type: biochemical
DYRKIB, sequence (Q9Y463 whole entry): as the sequence (Q9Y463 whole entry, species assumed) above

Compound	tau phosphorylation in cells (DYRK1A [1])	tau phosphorylation caused by the cold water stress (brain) [2]	expression level of cyclin D1 (DYRKIA; DYRKIA cell line, compound 5 μM for 4 hours, lane 2 of FIG. 8)	reduction in cyclin D1 by inducing the expression of DYRK (DYRKIA; DYRKIA expression induced 16 hours, then compound 5 μM for 4 hours, lane 4 of FIG. 8)	expression level of cyclin D1 (DYRK2 [3]; DYRK2 cell line, compound 5 μM for 4 hours, lane 10 of FIG. 8)	reduction in cyclin D1 by inducing the expression of DYRK (DYRK2 [3]; DYRK2 expression induced 16 hours, then compound 5 μM for 4 hours, lane 12 of FIG. 8)	expression level of cyclin D1 (DYRK1B; DYRK1B cell line, compound 5 μM for 4 hours, lane 6 of FIG. 8)	reduction in cyclin D1 by inducing the expression of DYRK (DYRK1B; DYRK1B expression induced 16 hours, then compound 5 μM for 4 hours, lane 8 of FIG. 8)	number of proliferating cells (BrdU positive) in the subgranular zone of the dentate gyrus of the hippocampus [4]	inhibition of the DYRK3 activity (DYRK3) [%]	inhibition of the DYRK2 activity (DYRK2 [5]) [%]	inhibition of the CLK2 activity (CLK2) [%]	inhibition of the CLK1 activity (CLK1) [%]	inhibition of the DYRK1A activity (DYRK1A [6]) [%]	inhibition of the CLK3 activity (CLK3) [%]	inhibition of the DYRKIB activity (DYRKIB) [%]
COc1ccc2c([nH]c3c(C)nccc32)c1C#C[Si](C)(C)C [compound 3, 8-[2-(trimethylsilyl)ethynyl]harmine]	inhibited															
CCN1/C(=C/C(C)=O)Sc2ccc3occc3c21 [compound 2, (Z)-1-[1-ethyl-7,8-benzofuro[4,5-d]thiazol-2(1H)-ylidene]propan-2-one]		inhibited	increased	corrected	increased	corrected	increased	corrected	significantly large							
CCN1/C(=C/C(C)=O)Sc2ccc3c(c21)CCO3 [compound 1, (Z)-1-[1-ethyl-7,8-dihydrobenzofuro[4,5-d]thiazol-2(1H)-ylidene]propan-2-one]		inhibited								100	100	98	99	98	80	99
